Experimental data from US10501748B2, “Methods and compositions for integration of an exogenous sequence within the genome of plants” (Dow AgroSciences LLC, priority 2013, dated 2019).

What was measured:
[1] = tested on: regenerated plants of cv. Bobwhite MPB26RH; assay: basal tolerance to IMAZAMOX at the plant rooting stage; assay type: in vivo, Triticum aestivum; settings: all concentrations tested (100-500 nM), 3 weeks
Method: The basal tolerance of the donor wheat line cv. Bobwhite MPB26RH to IMAZAMOX® at the plant rooting stage was determined as follows: Scutella of immature zygotic embryos from the donor wheat line were isolated as described previously and placed in 10 cm PETRI™ dishes containing CIM medium. Somatic embryogenic callus was allowed to form by incubating at 24° C. in the dark for 4 weeks. The SEC was transferred to 10 cm PETRI™ dishes containing DRM medium and incubated for 2 weeks at 24° C. under a 16/8 (light/dark) hour photoperiod to allow plant regeneration to take place. Regenerated plants were transferred to 10 cm PETRI™ dishes containing RM medium supplemented with 0, 100, 200, 300, 400, 500 nM IMAZAMOX®, respectively. Twenty regenerated plants were placed in each PETRI™ dish. A total of 60 regenerated plants were tested for basal tolerance response at each IMAZAMOX® concentration. After incubation for 3 weeks at 24° C. under a 16/8 (light/dark) hour photoperiod in a growth room, the root formation response was recorded.

[2] = tested on: somatic embryogenic callus of cv. Bobwhite MPB26RH; assay: basal tolerance to IMAZAMOX at the plant regeneration stage; assay type: cell-based, Triticum aestivum; settings: 200 nM, 2 weeks, compared to untreated samples
Method: The basal tolerance of the donor wheat line cv. Bobwhite MPB26RH to IMAZAMOX® at the plant regeneration stage was determined as follows: Scutella of immature zygotic embryos from the donor wheat line were isolated as described previously and placed in 10 cm PETRI™ dishes containing CIM medium. Somatic embryogenic callus was allowed to form by incubating at 24° C. in the dark for 4 weeks. The SEC was transferred to 10 cm PETRI™ dishes containing DRM medium supplemented with 0, 100, 200, 300, 400, 500 and 1000 nM IMAZAMOX® respectively. Twenty CIM were placed in each PETRI™ dish. A total of 60 CIM were tested for basal tolerance response at each IMAZAMOX® concentration. After incubation for 2 weeks at 24° C. under a 16/8 (light/dark) hour photoperiod in a growth room, the regeneration response was recorded.

[3] = tested on: cv. Clearfield Janz (S653/S653) and (N653/N653) plants; assay: basal tolerance/resistance to IMAZAMOX at the plant regeneration stage, modified approach (plant growth); assay type: in vivo, Triticum aestivum; settings: 3 weeks
Method: The basal tolerance of the cv. Clearfield Janz (S653/S653) genotype and basal resistance of the cv. Clearfield Janz (N653/N653) genotype to IMAZAMOX® at the plant regeneration stage was determined using a modified approach, as cv. […] Seed for each cv. Clearfield Janz genotype was germinated using the aseptic approach described above for producing wheat mesophyll protoplasts. The germinated seedlings were multiplied in vitro by sub-culturing on multiplication medium. Following multiplication, plants for each genotype were transferred to 10 cm PETRI™ dishes containing plant growth medium (MS+10 μM BA+0.8% agar) supplemented with 0, 100, 300, 600, 900, 1200, 1500 and 3000 nM IMAZAMOX®, respectively. Ten plants were placed in each PETRI™ dish. A total of 30 plants per genotype were tested for basal response at each IMAZAMOX® concentration. After incubation for 3 weeks at 24° C. under a 16/8 (light/dark) hour photoperiod in a growth room, the growth response was recorded. […] This response was similar to that observed for the cv. Bobwhite MPB26RH (S653/S653) genotype. In contrast, plant growth for the cv.

[4] = tested on: scutella of cv. Bobwhite MPB26RH and cv. Clearfield Janz (N653/N653); assay: basal tolerance/resistance to IMAZAMOX at the callus induction stage; assay type: cell-based, Triticum aestivum
Method: The basal tolerance of the donor wheat line cv. Bobwhite MPB26RH and basal resistance of cv. Clearfield Janz (N653/N653) genotype to IMAZAMOX® at the callus induction stage was determined as follows: Scutella of immature zygotic embryos from each wheat line were isolated as described previously and placed in 10 cm PETRI™ dishes containing CIM medium supplemented with 0, 50, 100, 200, 300, 400 and 500 nM IMAZAMOX® respectively. Twenty scutella were placed in each PETRI™ dish. A total of 60 scutella from each of the donor wheat line cv. Bobwhite MPB26RH and cv. Clearfield Janz genotype were tested for basal tolerance and basal resistance response, respectively, at each IMAZAMOX® concentration. After incubation at 24° C. in the dark for 4 weeks, the amount of somatic embryogenic callus formation (SEC) at each IMAZAMOX® concentration was recorded. […] Bobwhite MPB26RH was reduced by about 70% at 100 nM IMAZAMOX®, compared to untreated samples. Callus formation for the cv. Clearfield Janz genotype was unaffected, relative to the untreated control, at any IMAZAMOX® concentrations tested.

Structure (SMILES): COCc1cnc(C2=NC(C)(C(C)C)C(=O)N2)c(C(=O)O)c1 (stereo not drawn) [IMAZAMOX]
- root formation compared to untreated samples [1]: severely restricted
- reduction of plant regeneration [2]: about 80%
- concentration above which plant growth was strongly suppressed ([3]; cv. Clearfield Janz (N653/N653)): exceeded 2,000 nM
- plant growth compared to untreated samples ([3]; cv. Clearfield Janz (S653/S653), medium containing at least 200 nM): severely reduced
- reduction of SEC formation ([4]; cv. Bobwhite MPB26RH, 100 nM, 4 weeks, compared to untreated samples): about 70%
- callus formation relative to untreated control ([4]; cv. Clearfield Janz (N653/N653), any concentration tested (50-500 nM)): unaffected
